Values quoted from earlier work as cited in patent US20240058323A1, “PHARMACEUTICAL COMPOSITION CONTAINING PYRROLOQUINOLINE QUINONE TRILITHIUM SALT NONAHYDRATE COMPOUND, CAPSULE, AND PREPARATION METHOD THEREFOR” (SHANGHAI RAISING PHARMACEUTICAL CO., LTD, priority 2020, published 2024).
Where a name gives a salt, the structure may show the parent alone.

Details: crystalline nonahydrate API

temperature above which water is rapidly and irreversibly lost: higher than 60 °C
SMILES: O=C(O)c1cc(C(=O)O)c2c(n1)C(=O)C(=O)c1cc(C(=O)O)[nH]c1-2 [4,5-dioxo-4,5-dihydro-1H-pyrrolo[2,3-f]quinoline-2,7,9-tricarboxylic acid lithium salt nonahydrate compound]
